Results: patent US20120316105A1, “Polymyxin Derivates Useful As Antibacterial Agents” (priority 2011, published 2012)
Read-outs that look alike come from different tables or passages of the source. Bridge positions count the residues as written; N and C are the ends. Square brackets hold non-standard residues; d marks the D form. Peptide text beside a SMILES is read from it. * marks the point of attachment. Isonicotinoyl(2-Ph) = O=C(c1ccnc(-c2ccccc2)c1)*; X1 = CC[C@H](C)CCCCC(=O)*; Dab = NCC[C@H](N)C(=O)O; Dap = NC[C@H](N)C(=O)O

How the values were obtained:
[1] = test system: Human Renal Proximal Tubule Epithelial cells (hRPTEC); assay: Cytotoxicity assay (LDH release), hRPTEC; type: cell-based
In short: (§1)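 hRPTEC grown 72 h in REGM, then exposed to compounds at 100, 67, 44, 30, 20 and 13 micromolar for 24 h at 37° C, 5% CO2. LDH released into supernatant measured; TC50 (micromolar) derived. Compounds tested as trifluoroacetate salts unless otherwise noted.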

[2] = Cytotoxicity assay (LDH release), hRPTEC; type: cell-based, human; conditions: human
In short: as §1

[3] = test system: PA-1646, polymyxin-resistant clinical isolate of Pseudomonas aeruginosa; type: cell-based
In short: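 Broth dilution MIC and bactericidal (MBC) testing per CLSI methods (M7-A8, M100-S20, M26-A) against polymyxin-resistant clinical P. aeruginosa isolate PA-1646. Compounds tested as trifluoroacetate salts, one as sulfate salt; values in mg/L.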

[4] = test system: AB-1649, polymyxin-resistant clinical isolate of Acinetobacter baumannii; type: cell-based
In short: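 Broth dilution MIC per CLSI against the polymyxin-resistant A. baumannii isolate, 2-fold dilutions, overnight incubation, visual read of lowest concentration inhibiting growth. Run in duplicate, lower value reported when within 2-fold; MBC per CLSI M26-A guideline.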

[5] = test system: Pseudomonas aeruginosa strain PA01; type: cell-based
In short: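 CLSI broth dilution against P. aeruginosa PA01 with two-fold concentration steps and overnight incubation; MIC is lowest concentration visibly inhibiting growth versus drug-free control, in mg/L. Compounds tested as trifluoroacetate salts, in duplicate, lower value reported if within 2-fold; control organisms and reference compounds included.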

[6] = test system: PA-1646, polymyxin-resistant clinical isolate of Pseudomonas aeruginosa; type: cell-based; remark: listed apart in the source
In short: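 Broth dilution MIC per CLSI with 2-fold concentration steps, read visually after overnight incubation as lowest concentration inhibiting growth; duplicates within 2-fold, lower value reported, with QC strains and reference compounds. Compounds tested as trifluoroacetate salts, polymyxin B as sulfate.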

[7] = test system: AB-3167, clinical isolate of Acinetobacter baumannii; type: cell-based
In short: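 Broth dilution MIC per CLSI (M7-A8, M100-S20, M26-A for bactericidal), 2-fold dilution series, overnight incubation, visual read of lowest concentration inhibiting growth versus drug-free control. Duplicates run; lower value reported if within 2-fold, otherwise repeated. Compounds tested as trifluoroacetate salts; QC strains and reference compounds required in range.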

[8] = test system: EC-1, mouse virulent strain of Escherichia coli; type: cell-based; conditions: E. coli EC-1; overnight incubation, lower of duplicate values; trifluoroacetate salt (Example 1 and PMB sulfate)
In short: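 Compounds were tested mostly as trifluoroacetate salts. Duplicate CLSI broth-dilution MICs were read visually after overnight incubation over 2-fold dilutions, with the lower of duplicates within 2-fold taken. QC organisms and reference drugs were included in each run.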

[9] = test system: AB-1649, polymyxin-resistant clinical isolate of Acinetobacter baumannii; type: cell-based; remark: listed apart in the source
In short: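 MIC and MBC were measured by CLSI broth dilution methods (M7-A8, M100-S20, M26-A) against a polymyxin-resistant clinical isolate and reported in mg/L. Compounds were tested as trifluoroacetate salts, with one exception tested as the sulfate.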

[10] = test system: KP-3700, ESBL+ clinical isolate of Klebsiella pneumoniae; assay: Minimum inhibitory concentration (MIC, CLSI), KP-3700; type: cell-based; conditions: K. pneumoniae KP-3700; overnight incubation, lower of duplicate values; trifluoroacetate salt (Example 1 and PMB sulfate)
Description: (§2) Minimum bactericidal concentration (MBC, mg/L), minimum inhibitory concentration (MIC, mg/L), and human renal proximal tubule epithelial cell line cytotoxicity concentration 50% (hRPTEC, TC50, micromolar) for compounds of Formula I are listed in Table 2. The compounds of Formula I were tested as the corresponding trifluoroacetate salt except for Example 1 which was tested as the sulfate salt. For Table 2 below: PMB=polymyxin B as the sulfate salt (Bedford Laboratories, pharmaceutical grade); PMB1=polymyxin B1 as the trifluoroacetate salt; Nona=polymyxin B nonapeptide as the trifluoroacetate salt. PMB1 and Nona were prepared using the solid phase methodology described in the experimental section herein.
(§3) The in vitro antibacterial activity of compounds of Formula I was evaluated by MIC testing according to Clinical and Laboratory Standards Institute (CLSI). See: Clinical and Laboratory Standards Institute. Methods for Dilution Antimicrobial Susceptibility Tests for Bacteria that Grow Aerobically; Approved Standard-Eighth Edition. CLSI document M7-A8 [ISBN 1-56238-689-1]. Clinical and Laboratory Standards Institute, 940 West Valley Road, Suite 1400, Wayne, Pa. 19087-1898 USA, 2006; also Clinical and Laboratory Standards Institute. Performance Standards for Antimicrobial Susceptibility Testing; Twentieth Informational Supplement. CLSI document M100-S20 [ISBN 1-56238-716-2]. Clinical and Laboratory Standards Institute. Methods for Determining Bactericidal Activity of Antimicrobial Agents; Approved Guideline. CLSI document M26-A (ISBN 1-56238-384-1). CLSI, 940 West Valley Road, Suite 1400, Wayne, Pa. 19087-1898 USA, 1999.
(§4) The MIC determination is a standard laboratory method for evaluating the antibacterial activity of a compound. The MIC represents the lowest drug concentration that inhibits visible growth of bacteria following overnight incubation. […] Typically, the drug concentration range is broken down into 2-fold increments (e.g. 0.06 mg/L, 0.12 mg/L, 0.25 mg/L, 0.50 mg/L, 1.0 mg/L, etc.) and the various drug concentrations are all individually incubated overnight with approximately the same number of bacteria. The MIC is then determined by visually inspecting the drug effect at each concentration, and identifying the lowest drug concentration that has inhibited bacterial growth as compared to the drug free control. Typically, bacteria continue to grow at drug concentrations lower than the MIC and don't grow at concentrations at and above the MIC.
(§5) The MIC values described in Table 2 below were derived from assays wherein each test compound was evaluated in duplicate. In cases where the duplicate values varied by 0-2-fold, the lower of the two values was reported below. Generally speaking, if the duplicate values varied by more than 2-fold, the assay was considered non-valid and was repeated until the variation between duplicate runs was ≦2-fold. In line with the CLSI guidelines referred to above, both control organisms and reference compounds were utilized in each MIC assay to provide proper quality control. MIC values generated with these control organisms and reference compounds were required to fall within a defined range for the assay to be considered valid and be included herein. Those skilled in the art will recognize that MIC values can and do vary from experiment to experiment. Generally speaking, it should be recognized that MIC values often vary +/−2-fold from experiment to experiment. While a single MIC is reported for each compound and each microorganism, the reader should not conclude that each compound was only tested once. Several of the compounds were subjected to multiple tests. The data reported in Table 2 is reflective of the compounds relative activity and different MICs may have been generated on these occasions in line with the guidelines described above.
The following bacterial strains were used in these MIC determinations:
KP-3700 is an ESBL+clinical isolate of Klebsiella pneumoniae obtained in 2006; and […]

[11] = test system: KP-5016, ESBL+ clinical isolate of Klebsiella pneumoniae (SHV-5); assay: Minimum inhibitory concentration (MIC, CLSI), KP-5016; type: cell-based; conditions: K. pneumoniae KP-5016; overnight incubation, lower of duplicate values; trifluoroacetate salt (Example 1 and PMB sulfate)
Description: as §2, §3, §4, §5
The following bacterial strains were used in these MIC determinations: […]

[12] = PA-1646, polymyxin-resistant clinical isolate of
[13] = AB-1649, polymyxin-resistant clinical isolate of
[14] = A. baumannii AB-3167, overnight incubation, lower of duplicate values, trifluoroacetate salt (Example 1 and PMB sulfate)

CC(C)C[C@@H]1NC(=O)[C@@H](Cc2ccccc2)NC(=O)[C@H](CCN)NC(=O)[C@@H](NC(=O)[C@H](CN)NC(=O)[C@@H](NC(=O)[C@H](CCN)NC(=O)c2ccnc(-c3ccccc3)c2)[C@@H](C)O)CCNC(=O)[C@H]([C@@H](C)O)NC(=O)[C@H](CCN)NC(=O)[C@H](CCN)NC1=O [Example 1] ({Isonicotinoyl(2-Ph)}-[Dab]T[Dap][Dab][Dab][dF]L[Dab][Dab]T; lactam 4-C)
reduced human renal cytotoxicity compared with PMB [1]: 4-5 fold | CC50 at 24 h [2]: 95 µM | PA-1646 MBC [3, 12]: 4 µg/mL | AB-1649 MIC [4, 13]: 1 µg/mL | PA01 MIC ([5]; strain): 0.25 µg/mL | PA-1646 MIC [6, 12]: 2 µg/mL | AB-3167 MIC ([7]; AB-3167, clinical isolate of): 0.25 µg/mL | EC-1 MIC [8]: 0.125 µg/mL | AB-1649 MBC [9, 13]: 1 µg/mL

CC[C@H](C)CCCCC(=O)N[C@@H](CCN)C(=O)N[C@H](C(=O)N[C@@H](CN)C(=O)N[C@H]1CCNC(=O)[C@H]([C@@H](C)O)NC(=O)[C@H](CCN)NC(=O)[C@H](CCN)NC(=O)[C@H](CC(C)C)NC(=O)[C@@H](Cc2ccccc2)NC(=O)[C@H](CCN)NC1=O)[C@@H](C)O [Example 43] (X1-[Dab]T[Dap][Dab][Dab][dF]L[Dab][Dab]T; lactam 4-C)
reduced human renal cytotoxicity compared with PMB [1]: 3-4 fold | CC50 at 24 h [2]: 72 µM | PA-1646 MBC [3, 12]: 2 µg/mL | AB-1649 MIC [4, 13]: 4 µg/mL | PA01 MIC ([5]; strain): 0.5 µg/mL | PA-1646 MIC [6, 12]: 1 µg/mL | AB-3167 MIC [7, 14]: 0.125 µg/mL | EC-1 MIC [8]: 0.125 µg/mL | AB-1649 MBC [9, 13]: 4 µg/mL

polymyxin B [PMB, reference compound]
KP-3700 MIC [10]: 0.25 µg/mL | KP-5016 MIC [11]: 32 µg/mL | CC50 ([1]; hRPTEC, 24 hours treatment, LDH release, Toxic Concentration 50%, read-out: hRPTEC TC50): 20 µM | PA-1646 MBC ([3]; P. aeruginosa PA-1646, tested as trifluoroacetate salt (Example 1 and PMB as sulfate salt)): 32 µg/mL | AB-1649 MIC ([4]; A. baumannii AB-1649, overnight incubation, lower of duplicate values, trifluoroacetate salt (Example 1 and PMB sulfate)): 8 µg/mL | PA01 MIC ([5]; P. aeruginosa PA01, overnight incubation, lower of duplicate values, trifluoroacetate salt (Example 1 and PMB sulfate)): 0.5 µg/mL | PA-1646 MIC ([6]; P. aeruginosa PA-1646, overnight incubation, lower of duplicate values, trifluoroacetate salt (Example 1 and PMB sulfate)): 8 µg/mL | AB-3167 MIC [7, 14]: 0.25 µg/mL | EC-1 MIC [8]: 0.125 µg/mL | AB-1649 MBC ([9]; A. baumannii AB-1649, tested as trifluoroacetate salt (Example 1 and PMB as sulfate salt)): 8 µg/mL
